Source: paper PMC5382265, “Macrocycle peptides delineate locked-open inhibition mechanism for microorganism phosphoglycerate mutases” (Nature Communications, 2017)
Like-named read-outs stand apart in the source and are kept apart here.

Assays:
[1] = target: T1, E. coli iPGM (Escherichia coli, UniProt P37689); test: biochemical
[2] = target: T1, E. coli iPGM; test: biochemical; remark: listed apart in the source
[3] = target: H. sapiens dPGM (Homo sapiens, UniProt P18669); test: Gradient elution moving boundary electrophoresis (GEMBE) assay; format: biochemical; details: 2.1 nM H. sapiens dPGM
[4] = target: T2, C. elegans iPGM (Caenorhabditis elegans, UniProt G5EFZ1); test: PGM enzyme-coupled bioluminescent end point assay (Kinase-Glo Plus); format: biochemical
T2 sequence (G5EFZ1 1-539): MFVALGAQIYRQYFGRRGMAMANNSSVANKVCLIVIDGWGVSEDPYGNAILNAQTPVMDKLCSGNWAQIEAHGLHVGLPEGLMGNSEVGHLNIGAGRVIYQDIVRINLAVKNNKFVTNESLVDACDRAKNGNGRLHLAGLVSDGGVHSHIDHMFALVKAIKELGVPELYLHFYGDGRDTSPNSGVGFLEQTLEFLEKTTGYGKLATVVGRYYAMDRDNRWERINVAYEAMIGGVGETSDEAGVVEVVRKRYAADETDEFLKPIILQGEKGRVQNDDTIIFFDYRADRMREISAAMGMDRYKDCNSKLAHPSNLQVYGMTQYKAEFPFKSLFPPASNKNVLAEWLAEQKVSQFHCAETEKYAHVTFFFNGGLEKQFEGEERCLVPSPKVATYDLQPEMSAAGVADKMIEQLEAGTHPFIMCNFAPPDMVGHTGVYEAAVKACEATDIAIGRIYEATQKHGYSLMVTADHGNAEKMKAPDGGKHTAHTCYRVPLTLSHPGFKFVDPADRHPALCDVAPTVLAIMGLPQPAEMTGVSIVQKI

[5] = target: E. coli cofactor-independent phosphoglycerate mutase (iPGM) (E. coli) (UniProt P37689)
Sequence of E. coli cofactor-independent phosphoglycerate mutase (iPGM) (E. coli) (P37689 whole entry): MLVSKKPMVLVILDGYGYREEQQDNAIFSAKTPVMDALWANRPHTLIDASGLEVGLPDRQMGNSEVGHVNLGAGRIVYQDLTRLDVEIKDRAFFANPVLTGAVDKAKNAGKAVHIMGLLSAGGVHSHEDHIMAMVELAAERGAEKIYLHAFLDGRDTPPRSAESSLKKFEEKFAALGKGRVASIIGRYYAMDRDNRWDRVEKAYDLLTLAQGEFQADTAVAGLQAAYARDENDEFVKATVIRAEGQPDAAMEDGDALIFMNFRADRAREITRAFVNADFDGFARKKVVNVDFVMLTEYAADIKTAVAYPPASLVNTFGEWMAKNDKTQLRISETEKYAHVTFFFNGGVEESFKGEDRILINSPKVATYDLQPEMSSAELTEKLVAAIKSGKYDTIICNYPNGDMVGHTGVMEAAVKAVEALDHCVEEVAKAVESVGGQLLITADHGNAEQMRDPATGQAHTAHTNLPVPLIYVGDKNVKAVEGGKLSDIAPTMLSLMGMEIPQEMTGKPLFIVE

T1 sequence (P37689 whole entry, looked up): as the sequence (P37689 whole entry) above
Sequence of H. sapiens dPGM (P18669 whole entry): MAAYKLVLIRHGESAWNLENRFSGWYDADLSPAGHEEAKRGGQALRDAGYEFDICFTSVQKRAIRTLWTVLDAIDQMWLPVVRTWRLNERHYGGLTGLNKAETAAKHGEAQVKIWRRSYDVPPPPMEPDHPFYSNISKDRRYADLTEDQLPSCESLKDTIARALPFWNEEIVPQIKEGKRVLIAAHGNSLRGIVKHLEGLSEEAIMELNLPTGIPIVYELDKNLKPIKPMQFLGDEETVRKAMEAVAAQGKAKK

Compound | IC50 [1] [nM] | IC50 ([2]; pIC50, apparent E. coli iPGM) [nM] | IC50 ([2]; pIC50 E. coli iPGM) [nM] | pIC50 from the GEMBE assay [3] | IC50 ([4]; pIC50, apparent C. elegans iPGM) [nM] | IC50 ([4]; pIC50 C. elegans iPGM) [nM] | IC50 of inhibition of PGM activity, enzyme-coupled bioluminescent assay [5] [nM]
CC(C)C[C@H](NC(=O)[C@H](Cc1ccc(O)cc1)NC(=O)[C@@H]1CSCC(=O)N[C@H](Cc2ccc(O)cc2)C(=O)N[C@@H](CC(=O)O)C(=O)N[C@@H](Cc2ccc(O)cc2)C(=O)N2CCC[C@H]2C(=O)NCC(=O)N[C@@H](CC(=O)O)C(=O)N[C@@H](Cc2ccc(O)cc2)C(=O)N1)C(=O)N[C@@H](Cc1ccc(O)cc1)C(=O)NCC(=O)N[C@H](C(=O)N[C@@H](CS)C(=O)NCC(N)=O)[C@@H](C)O [Ce-2] | 3.24 | 1.66 | 0.55 | no apparent activity | 2.24 | 0.251 | –
Ce-2S (Ce-2 with Cys14Ser) (peptide) | – | – | – | – | – | – | 10
